Experimental data reported in ChEMBL document CHEMBL4308875, “Synthesis, antituberculosis studies and biological evaluation of new quinoline derivatives carrying 1,2,4-oxadiazole moiety” (Bioorg Med Chem Lett, 2019).
Converted amounts (≈) assume the structure as drawn.

Assays:
Format in all cases: functional
Conditions in all cases: 168 h
[1] = system: Mycobacterium tuberculosis; assay: Antitubercular activity against streptomycin-resistant Mycobacterium tuberculosis after 7 days by resazurin dye based colorimetric assay
[2] = system: Mycobacterium tuberculosis; assay: Antitubercular activity against moxifloxacin-resistant Mycobacterium tuberculosis after 7 days by resazurin dye based colorimetric assay
[3] = system: Mycobacterium tuberculosis; assay: Antitubercular activity against isoniazid-resistant Mycobacterium tuberculosis after 7 days by resazurin dye based colorimetric assay
[4] = system: Mycobacterium tuberculosis; assay: Antitubercular activity against kanamycin-resistant Mycobacterium tuberculosis after 7 days by resazurin dye based colorimetric assay
[5] = system: Mycobacterium tuberculosis; assay: Antitubercular activity against d-cycloserine-resistant Mycobacterium tuberculosis after 7 days by resazurin dye based colorimetric assay
[6] = system: Mycobacterium tuberculosis; assay: Antitubercular activity against rifampicin-resistant Mycobacterium tuberculosis after 7 days by resazurin dye based colorimetric assay

Structure (SMILES) | MIC [1] [mg/L] | MIC [2] [mg/L] | MIC [3] [mg/L] | MIC [4] [mg/L] | MIC [5] [mg/L] | MIC [6] [mg/L]
CC(C)c1ccc(-c2nc(CN3CCN(c4ccnc5cc(Cl)ccc45)CC3)no2)cc1 | 28.6 (≈ 63.8 µM) | 4.01 (≈ 8.95 µM) | 4.17 (≈ 9.31 µM) | 3.24 (≈ 7.23 µM) | 3.68 (≈ 8.21 µM) | 3.81 (≈ 8.51 µM)
NNC(=O)c1ccncc1 [ISONIAZID] | 1 (≈ 7.29 µM) | 0.49 (≈ 3.57 µM) | > 8 | 0.49 (≈ 3.57 µM) | 3.78 (≈ 27.6 µM) | 0.49 (≈ 3.57 µM)
CC(=O)NC[C@H]1CN(c2ccc(N3CCOCC3)c(F)c2)C(=O)O1 [LINEZOLID] | 14.1 (≈ 41.7 µM) | 3.65 (≈ 10.8 µM) | 2.33 (≈ 6.91 µM) | 1.91 (≈ 5.66 µM) | 10.3 (≈ 30.7 µM) | 1.68 (≈ 4.98 µM)
COc1c(N2C[C@@H]3CCCN[C@@H]3C2)c(F)cc2c(=O)c(C(=O)O)cn(C3CC3)c12 [MOXIFLOXACIN] | 0.94 (≈ 2.34 µM) | > 16 | 0.49 (≈ 1.22 µM) | 0.21 (≈ 0.523 µM) | 0.46 (≈ 1.15 µM) | 0.42 (≈ 1.05 µM)
CO[C@H]1/C=C/O[C@@]2(C)Oc3c(C)c(O)c4c(O)c(c(/C=N/N5CCN(C)CC5)c(O)c4c3C2=O)NC(=O)/C(C)=C\C=C\[C@H](C)[C@H](O)[C@@H](C)[C@@H](O)[C@@H](C)[C@H](OC(C)=O)[C@@H]1C [RIFAMPIN] | 0.05 (≈ 0.0608 µM) | 0.23 (≈ 0.279 µM) | < 0.02 | < 0.02 | < 0.02 | > 4
